Experimental data published in the NIST ThermoML archive (doi:10.1016/j.jct.2017.03.033).

Assay: molar heat capacity at constant pressure
Conditions: Liquid, Flow calorimetry

CC(C)C [2-methylpropane]
Conditions	molar heat capacity at constant pressure [J/K/mol]
303.53 K, 1050 kPa	142.52
303.55 K, 1540 kPa	141.88
303.56 K, 2000 kPa	141.53
303.56 K, 3020 kPa	140.13
303.57 K, 2500 kPa	140.83
303.59 K, 9990 kPa	135.77
303.62 K, 4030 kPa	139.55
303.62 K, 4500 kPa	139.32
303.62 K, 6500 kPa	138.1
303.62 K, 7990 kPa	136.88
303.63 K, 6010 kPa	138.45
303.63 K, 7030 kPa	137.69
303.63 K, 7530 kPa	137.34
303.63 K, 8510 kPa	136.7
303.63 K, 9510 kPa	136.24
303.64 K, 5000 kPa	139.03
303.64 K, 9000 kPa	136.47
303.65 K, 5520 kPa	138.8
303.7 K, 3480 kPa	139.78
303.82 K, 11510 kPa	134.38
303.82 K, 12000 kPa	134.2
303.86 K, 10530 kPa	135.37
303.86 K, 11040 kPa	134.96
313.48 K, 1040 kPa	142.81
313.48 K, 6480 kPa	138.39
313.49 K, 3020 kPa	141.12
313.49 K, 7500 kPa	138.1
313.5 K, 5530 kPa	139.09
313.5 K, 6030 kPa	138.56
313.5 K, 7030 kPa	138.27
313.5 K, 8040 kPa	137.81
313.5 K, 8480 kPa	137.69
313.51 K, 1540 kPa	142.46
313.51 K, 2020 kPa	141.93
313.51 K, 2540 kPa	141.53
313.51 K, 4010 kPa	140.6
313.51 K, 9020 kPa	137.52
313.52 K, 4500 kPa	140.07
313.52 K, 9480 kPa	137.34
313.52 K, 10060 kPa	137.28
313.54 K, 5080 kPa	139.26
313.55 K, 10530 kPa	136.59
313.57 K, 11480 kPa	136.3
313.57 K, 12050 kPa	136.12
313.58 K, 3550 kPa	140.95
313.58 K, 11070 kPa	136.47
323.11 K, 1040 kPa	146.53
323.16 K, 1510 kPa	146.24
323.22 K, 2020 kPa	145.77
323.23 K, 3510 kPa	144.03
323.24 K, 2540 kPa	145.01
323.25 K, 3020 kPa	144.49
323.25 K, 4020 kPa	143.62
323.27 K, 10500 kPa	139.49
323.28 K, 4550 kPa	143.33
323.28 K, 10980 kPa	139.44
323.3 K, 4970 kPa	143.04
323.31 K, 11540 kPa	139.38
323.32 K, 5500 kPa	142.69
323.32 K, 5980 kPa	142.17
323.33 K, 6470 kPa	141.7
323.33 K, 7020 kPa	141.3
323.34 K, 11990 kPa	139.2
323.35 K, 7470 kPa	141.24
323.37 K, 7990 kPa	141
323.37 K, 9480 kPa	140.07
323.38 K, 8510 kPa	140.77
323.38 K, 9990 kPa	139.67
323.39 K, 9000 kPa	140.42
333.64 K, 1050 kPa	151.06
333.65 K, 10550 kPa	143.33
333.65 K, 10920 kPa	143.21
333.66 K, 5960 kPa	145.65
333.66 K, 11520 kPa	143.15
333.67 K, 4020 kPa	147.05
333.67 K, 4480 kPa	146.76
333.67 K, 9460 kPa	143.5
333.67 K, 11930 kPa	143.15
333.68 K, 10010 kPa	143.62
333.69 K, 1530 kPa	150.48
333.69 K, 5010 kPa	146.41
333.69 K, 7030 kPa	145.31
333.7 K, 5530 kPa	146.12
333.7 K, 6520 kPa	145.54
333.71 K, 3530 kPa	147.63
333.71 K, 8510 kPa	144.43
333.72 K, 2020 kPa	149.84
333.72 K, 2520 kPa	149.2
333.72 K, 8970 kPa	144.38
333.73 K, 3050 kPa	148.79
333.73 K, 7550 kPa	145.13
333.74 K, 8040 kPa	145.13
343.71 K, 1520 kPa	159.49
343.76 K, 2030 kPa	157.92
343.79 K, 3510 kPa	155.13
343.81 K, 2530 kPa	157.34
343.81 K, 3030 kPa	155.65
343.83 K, 4010 kPa	154.02
343.84 K, 5010 kPa	153.09
343.85 K, 4530 kPa	153.62
343.85 K, 6000 kPa	151.06
343.85 K, 7500 kPa	149.49
343.85 K, 8000 kPa	148.27
343.85 K, 8500 kPa	147.98
343.85 K, 10990 kPa	145.77
343.85 K, 12010 kPa	145.07
343.86 K, 5490 kPa	151.93
343.86 K, 6530 kPa	150.36
343.86 K, 10020 kPa	146.82
343.86 K, 11480 kPa	145.48
343.87 K, 9000 kPa	147.51
343.87 K, 10510 kPa	146.47
343.88 K, 7020 kPa	150.07
343.88 K, 9490 kPa	147.4
353.82 K, 2510 kPa	163.9
353.85 K, 3020 kPa	162.57
353.85 K, 9000 kPa	152.16
353.85 K, 9500 kPa	151.7
353.86 K, 4510 kPa	158.62
353.87 K, 4990 kPa	158.09
353.87 K, 6010 kPa	156.06
353.87 K, 7000 kPa	153.97
353.87 K, 8520 kPa	152.22
353.87 K, 10000 kPa	151.35
353.87 K, 10510 kPa	151
